Results from ChEMBL document CHEMBL1135036, “Synthesis and antibacterial evaluation of novel 2-[N-Imidoylpyrrolidinyl] carbapenems” (Bioorg Med Chem Lett, 2002).
Converted amounts (≈) assume the structure as drawn.

Columns and labels:
Staphylococcus aureus [1] = test: In vitro antibacterial activity against Staphylococcus aureus 3004 Methicillin-resistant Staphylococcus aureus.; assay type: functional
Proteus vulgaris = test: In vitro antibacterial activity against Proteus vulgaris IAM 1025.; assay type: functional
[2] = Tested for urinary recovery in mice after subcutaneous administration of 20 mg/Kg; assay type: ADME, organism-based; conditions: mouse, urine, sc, read-out: Recovery
Pseudomonas aeruginosa [3] = test: In vitro antibacterial activity against Ps. auruginosa 26.; assay type: functional
Staphylococcus aureus [4] = test: In vitro antibacterial activity against Staphylococcus aureus 209P JC-1.; assay type: functional
[5] = target: T1, Dipeptidase 1 (Sus scrofa) (UniProt P22412); test: Tested for stability of compound to swine renal DHP-1 relative to imipenem (IMP); assay type: functional
T1 sequence (whole entry): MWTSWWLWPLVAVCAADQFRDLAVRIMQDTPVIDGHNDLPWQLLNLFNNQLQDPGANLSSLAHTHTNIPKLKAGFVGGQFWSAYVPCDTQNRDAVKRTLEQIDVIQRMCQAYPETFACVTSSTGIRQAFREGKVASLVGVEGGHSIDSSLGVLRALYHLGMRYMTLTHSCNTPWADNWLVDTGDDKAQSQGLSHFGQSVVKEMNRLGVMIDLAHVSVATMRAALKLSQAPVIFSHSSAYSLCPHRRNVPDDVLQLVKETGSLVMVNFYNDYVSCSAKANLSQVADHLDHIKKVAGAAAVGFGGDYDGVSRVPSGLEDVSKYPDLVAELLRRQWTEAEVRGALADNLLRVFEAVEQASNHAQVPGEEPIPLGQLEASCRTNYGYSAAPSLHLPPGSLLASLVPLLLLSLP

Escherichia coli = test: In vitro antibacterial activity against Escherichia coli NIHJ JC-2.; assay type: functional
[6] = target: T2, Dipeptidase 1 (Homo sapiens) (UniProt P16444); test: Compound stability against human renal DHP-1 relative to imipenem (IMP); assay type: functional
T2 sequence (whole entry): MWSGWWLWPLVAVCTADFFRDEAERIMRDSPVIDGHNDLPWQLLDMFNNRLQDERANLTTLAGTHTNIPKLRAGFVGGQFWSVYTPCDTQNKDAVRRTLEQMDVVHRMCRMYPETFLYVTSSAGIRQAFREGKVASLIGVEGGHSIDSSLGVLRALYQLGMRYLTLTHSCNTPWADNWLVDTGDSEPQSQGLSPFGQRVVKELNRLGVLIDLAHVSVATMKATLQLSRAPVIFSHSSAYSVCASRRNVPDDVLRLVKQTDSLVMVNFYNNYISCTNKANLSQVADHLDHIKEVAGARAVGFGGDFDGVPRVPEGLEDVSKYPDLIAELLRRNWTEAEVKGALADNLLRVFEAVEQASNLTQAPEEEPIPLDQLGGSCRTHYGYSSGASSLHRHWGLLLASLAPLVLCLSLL

[7] = target: T2, Dipeptidase 1 (Homo sapiens); test: Tested for stability of compound to human renal DHP-1 relative to imipenem (IMP); assay type: functional
Pseudomonas aeruginosa [8] = test: Tested in vitro for antibacterial activity against Ps. aeruginosa 26; assay type: functional

SMILES	MIC (Staphylococcus aureus [1]) [µg/mL]	MIC (Proteus vulgaris) [µg/mL]	dose excreted [2] [%]	MIC (Pseudomonas aeruginosa [3]) [µg/mL]	MIC (Staphylococcus aureus [4]) [µg/mL]	Stability [5] [%]	MIC (Escherichia coli) [µg/mL]	Stability [6] [%]	Stability [7] [%]	MIC (Pseudomonas aeruginosa [8]) [µg/mL]
C/N=C/N1CC[C@@H](C2=C(C(=O)O)N3C(=O)[C@H]([C@@H](C)O)[C@H]3C2)C1	3.13 (≈ 10.2 µM)	0.78 (≈ 2.54 µM)	48	0.39 (≈ 1.27 µM)	< 0.025	7.8	0.2 (≈ 0.651 µM)	91	–	–
C[C@@H](O)[C@H]1C(=O)N2C(C(=O)O)=C([C@@H]3CCNC3)C[C@H]12	50 (≈ 188 µM)	6.25 (≈ 23.5 µM)	37	0.39 (≈ 1.46 µM)	< 0.025	8.8	0.2 (≈ 0.751 µM)	48	–	–
C[C@@H](O)[C@H]1C(=O)N2C(C(=O)O)=C([C@@H]3CCN(C(=N)CC(N)=O)C3)C[C@H]12	6.25 (≈ 17.8 µM)	1.56 (≈ 4.45 µM)	43	0.39 (≈ 1.11 µM)	< 0.025	13	0.39 (≈ 1.11 µM)	14	–	–
C[C@@H](O)[C@H]1C(=O)N2C(C(=O)O)=C([C@@H]3CCN(C(=N)CO)C3)C[C@H]12	25 (≈ 77.3 µM)	3.13 (≈ 9.68 µM)	52	0.78 (≈ 2.41 µM)	< 0.025	13	0.39 (≈ 1.21 µM)	–	–	–
CC(=N)N1CC[C@H](SC2=C(C(=O)O)N3C(=O)[C@H]([C@@H](C)O)[C@H]3C2)C1 [PANIPENEM]	50 (≈ 147 µM)	1.56 (≈ 4.6 µM)	25	0.39 (≈ 1.15 µM)	0.025 (≈ 0.0737 µM)	–	0.2 (≈ 0.589 µM)	–	–	–
C[C@@H](O)[C@H]1C(=O)N2C(C(=O)O)=C(SCCNC=N)C[C@H]12 [IMIPENEM ANHYDROUS]	100 (≈ 334 µM)	3.1 (≈ 10.4 µM)	–	0.78 (≈ 2.61 µM)	< 0.025	100	0.78 (≈ 2.61 µM)	100	–	–
C[C@@H](O)[C@H]1C(=O)N2C(C(=O)O)=C([C@@H]3CCN(C(=N)COC(N)=O)C3)C[C@H]12	6.25 (≈ 17.1 µM)	1.56 (≈ 4.26 µM)	42	0.78 (≈ 2.13 µM)	< 0.025	–	0.1 (≈ 0.273 µM)	13	–	–
C[C@@H](O)[C@H]1C(=O)N2C(C(=O)O)=C(C3CCCNC3)C[C@H]12 (stereo partly drawn)	50 (≈ 178 µM)	25 (≈ 89.2 µM)	59	1.56 (≈ 5.56 µM)	< 0.025	–	0.39 (≈ 1.39 µM)	–	4.4	–
C[C@@H](O)[C@H]1C(=O)N2C(C(=O)O)=C(C3CCNC3)C[C@H]12 (stereo partly drawn)	100 (≈ 376 µM)	12.5 (≈ 46.9 µM)	42	0.78 (≈ 2.93 µM)	< 0.025	13	0.39 (≈ 1.46 µM)	58	–	–
C[C@@H](O)[C@H]1C(=O)N2C(C(=O)O)=C(C3CCNCC3)C[C@H]12	> 100	12.5 (≈ 44.6 µM)	43	–	0.05 (≈ 0.178 µM)	18	1.56 (≈ 5.56 µM)	–	–	0.78 (≈ 2.78 µM)
C[C@@H](O)[C@H]1C(=O)N2C(C(=O)O)=C([C@H]3CCNC3)C[C@H]12	100 (≈ 376 µM)	6.25 (≈ 23.5 µM)	46	0.78 (≈ 2.93 µM)	< 0.025	16	0.39 (≈ 1.46 µM)	78	–	–
C[C@@H](O)[C@H]1C(=O)N2C(C(=O)O)=C([C@@H]3CCN(C4=NCCC4)C3)C[C@H]12	12.5 (≈ 37.5 µM)	1.56 (≈ 4.68 µM)	50	0.39 (≈ 1.17 µM)	< 0.025	8.4	0.2 (≈ 0.6 µM)	28	–	–
C[C@@H](O)[C@H]1C(=O)N2C(C(=O)O)=C(SCCN=CN)C[C@H]12 [IMIPENEM ANHYDROUS]	–	–	29	–	–	–	–	–	–	–
C[C@@H](O)[C@H]1C(=O)N2C(C(=O)O)=C([C@@H]3CCN(C(=N)CNC(N)=O)C3)C[C@H]12	25 (≈ 68.4 µM)	3.13 (≈ 8.57 µM)	47	0.39 (≈ 1.07 µM)	< 0.025	–	0.2 (≈ 0.547 µM)	20	–	–
C[C@@H](O)[C@H]1C(=O)N2C(C(=O)O)=C(C3CNC3)C[C@H]12	100 (≈ 396 µM)	3.13 (≈ 12.4 µM)	45	1.56 (≈ 6.18 µM)	0.05 (≈ 0.198 µM)	2	1.56 (≈ 6.18 µM)	–	–	–
C/C(=C\[C@@]1(C)CCCN1)C1=C(C(=O)O)N2C(=O)[C@H]([C@@H](C)O)[C@H]2C1	50 (≈ 156 µM)	1.56 (≈ 4.87 µM)	61	3.13 (≈ 9.77 µM)	< 0.025	4.3	0.39 (≈ 1.22 µM)	45	–	–
CC(=N)N1CC[C@@H](C2=C(C(=O)O)N3C(=O)[C@H]([C@@H](C)O)[C@H]3C2)C1	6.25 (≈ 20.3 µM)	1.56 (≈ 5.08 µM)	44	0.78 (≈ 2.54 µM)	< 0.025	8.4	0.2 (≈ 0.651 µM)	34	–	–
C[C@@H](O)[C@H]1C(=O)N2C(C(=O)O)=C([C@@H]3CCN(C=N)C3)C[C@H]12	25 (≈ 85.2 µM)	1.56 (≈ 5.32 µM)	41	0.2 (≈ 0.682 µM)	< 0.025	15	0.1 (≈ 0.341 µM)	39	–	–
